Active and inactive are the calls of the source. The calls are words filed in the database; no cut-off is given here. Where a SMILES comes first, the peptide text is derived from it. Bridges are numbered along the chain shown (N, C = ends).

Assay [1] concerns the target Vascular endothelial growth factor receptor 2 (Homo sapiens) (UniProt P35968). The assay is described as follows: Inhibition of VEGFR2 phosphorylation in VEGF165-stimulated HUVEC at 100 uM treated for 1 hr before VEGF165 challenge measured after 5 mins by Western blot analysis. The assay is classed as cell-based. On the technique in general: In western blotting, separated proteins are transferred to a membrane and probed.

In assay [2] the test system is HUVEC. The note with it: Homo sapiens, 33 uM.
Description: Inhibition of VEGFR in HUVEC assessed as inhibition of VEGF165-induced ERK1/2 phosphorylation at 33 uM treated for 1 hr before VEGF165 challenge measured after 15 mins by Western blot analysis
The target in assay [3] is Vascular endothelial growth factor receptor 2 (Homo sapiens) (UniProt P35968). The assay can be described thus: Inhibition of VEGFR2 phosphorylation in VEGF165-stimulated HUVEC at 33 uM treated for 1 hr before VEGF165 challenge measured after 5 mins by Western blot analysis. The assay is classed as cell-based.
Vascular endothelial growth factor receptor 2 (Homo sapiens), sequence (P35968 whole entry, the tested form may be a part): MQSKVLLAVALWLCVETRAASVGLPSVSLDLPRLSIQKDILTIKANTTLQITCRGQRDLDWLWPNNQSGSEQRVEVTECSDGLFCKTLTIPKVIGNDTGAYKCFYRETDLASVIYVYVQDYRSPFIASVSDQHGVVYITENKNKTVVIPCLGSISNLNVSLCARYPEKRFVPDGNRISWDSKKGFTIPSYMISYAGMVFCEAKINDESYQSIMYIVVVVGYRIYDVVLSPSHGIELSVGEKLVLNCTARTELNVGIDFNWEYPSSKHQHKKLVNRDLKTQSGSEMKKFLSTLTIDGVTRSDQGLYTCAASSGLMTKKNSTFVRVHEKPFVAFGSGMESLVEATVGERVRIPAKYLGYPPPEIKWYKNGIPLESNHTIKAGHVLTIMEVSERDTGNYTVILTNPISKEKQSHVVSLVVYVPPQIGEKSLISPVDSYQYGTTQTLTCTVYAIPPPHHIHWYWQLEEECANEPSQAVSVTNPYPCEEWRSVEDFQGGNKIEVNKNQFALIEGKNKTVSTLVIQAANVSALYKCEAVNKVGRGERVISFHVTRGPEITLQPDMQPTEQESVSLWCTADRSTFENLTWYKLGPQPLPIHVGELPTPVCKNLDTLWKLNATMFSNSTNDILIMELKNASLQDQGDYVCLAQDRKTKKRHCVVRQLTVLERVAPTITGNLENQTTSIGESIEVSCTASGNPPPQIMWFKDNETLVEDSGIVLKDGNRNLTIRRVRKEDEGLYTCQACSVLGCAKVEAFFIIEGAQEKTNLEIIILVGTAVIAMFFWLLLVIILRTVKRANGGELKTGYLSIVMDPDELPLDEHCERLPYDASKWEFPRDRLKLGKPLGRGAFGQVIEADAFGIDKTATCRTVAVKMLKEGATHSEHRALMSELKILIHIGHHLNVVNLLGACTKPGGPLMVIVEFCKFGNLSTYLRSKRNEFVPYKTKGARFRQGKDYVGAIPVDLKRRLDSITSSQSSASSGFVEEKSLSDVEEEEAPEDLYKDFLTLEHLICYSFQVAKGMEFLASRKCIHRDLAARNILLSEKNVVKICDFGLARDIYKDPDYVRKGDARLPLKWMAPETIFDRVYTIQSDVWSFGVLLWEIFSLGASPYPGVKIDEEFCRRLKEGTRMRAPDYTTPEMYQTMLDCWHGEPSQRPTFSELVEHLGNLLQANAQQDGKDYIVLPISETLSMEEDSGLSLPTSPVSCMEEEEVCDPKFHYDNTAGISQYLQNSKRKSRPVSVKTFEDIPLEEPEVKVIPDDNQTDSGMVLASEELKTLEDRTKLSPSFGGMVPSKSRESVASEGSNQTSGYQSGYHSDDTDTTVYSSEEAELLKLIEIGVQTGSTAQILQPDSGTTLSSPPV
Assay [4] concerns HUVEC. The conditions noted are these: Homo sapiens, 100 uM.
Description: Inhibition of VEGFR in HUVEC assessed as inhibition of VEGF165-induced ERK1/2 phosphorylation at 100 uM treated for 1 hr before VEGF165 challenge measured after 15 mins by Western blot analysis
The target of assay [5] is Vascular endothelial growth factor receptor 2 (Homo sapiens) (UniProt P35968). The assay is described as follows: Inhibition of VEGFR2 phosphorylation in VEGF165-stimulated HUVEC treated for 1 hr before VEGF165 challenge measured after 5 mins by Western blot analysis. The assay is classed as cell-based.
The target is the same in assay [6]. The assay is described as follows: Inhibition of VEGFR2 phosphorylation in VEGF165-stimulated HUVEC at 10 uM treated for 1 hr before VEGF165 challenge measured after 5 mins by Western blot analysis. It is filed as cell-based.
The target is the same in assay [7]. The assay can be described thus: Inhibition of VEGFR2 phosphorylation in VEGF165-stimulated HUVEC at 3 uM treated for 1 hr before VEGF165 challenge measured after 5 mins by Western blot analysis.
The subject of assay [8] is HUVEC. The conditions noted are these: Homo sapiens, 3 uM.
Description: Inhibition of VEGFR in HUVEC assessed as inhibition of VEGF165-induced ERK1/2 phosphorylation at 3 uM treated for 1 hr before VEGF165 challenge measured after 15 mins by Western blot analysis
The subject of assay [9] is HUVEC. The note with it: Homo sapiens, 10 uM.
The target in assay [10] is Vascular endothelial growth factor receptor 2 (Homo sapiens) (UniProt P35968). The assay can be described thus: Binding affinity to human recombinant VEGFR2 extracellular domain immobilized in CNBr-activated sepharose at 25 nmol after 5 mins by pull-down assay.

For the molecule `CC(C)C[C@@H]1NC(=O)CNC(=O)[C@H](CCC(=O)O)NC(=O)[C@H](CC(=O)O)NC(=O)[C@H](Cc2ccc(O)cc2)NC(=O)[C@H](C)NC(=O)CC[C@@H](C(N)=O)NC(=O)[C@H](CCC(=O)O)NC1=O` (AYDEGLEE-NH2; lactam N-8), in assay [1], the inhibition result is “inactive”.
The same measure, in the same setting: the entry for `CC(C)C[C@@H]1NC(=O)CNC(=O)[C@H](CCC(=O)O)NC(=O)[C@H](CC(=O)O)NC(=O)[C@H](C)NC(=O)[C@H](Cc2ccc(O)cc2)NC(=O)CC[C@@H](C(N)=O)NC(=O)[C@H](CCC(=O)O)NC1=O` (YADEGLEE-NH2; lactam N-8) is “inactive”.
`CC(C)C[C@@H]1NC(=O)CNC(=O)[C@H](CCC(=O)O)NC(=O)[C@H](CC(=O)O)NC(=O)[C@H](CCCCN)NC(=O)[C@H](Cc2ccc(O)cc2)NC(=O)CC[C@@H](C(N)=O)NC(=O)[C@H](CCC(=O)O)NC1=O` (YKDEGLEE-NH2; lactam N-8): in assay [1], the inhibition result is “Active”.
Regarding `CC(C)C[C@@H]1NC(=O)CNC(=O)[C@H](C)NC(=O)[C@H](CC(=O)O)NC(=O)[C@H](Cc2ccc(O)cc2)NC(=O)[C@H](Cc2ccc(O)cc2)NC(=O)CC[C@@H](C(N)=O)NC(=O)[C@H](CCC(=O)O)NC1=O` (YYDAGLEE-NH2; lactam N-8), in assay [1], the inhibition result is “inactive”.
As to `C[C@@H]1NC(=O)CNC(=O)[C@H](CCC(=O)O)NC(=O)[C@H](CC(=O)O)NC(=O)[C@H](Cc2ccc(O)cc2)NC(=O)[C@H](Cc2ccc(O)cc2)NC(=O)CC[C@@H](C(N)=O)NC(=O)[C@H](CCC(=O)O)NC1=O` (YYDEGAEE-NH2; lactam N-8), in [1], the inhibition result was “inactive”.
For the molecule `CC(C)C[C@@H]1NC(=O)CNC(=O)[C@H](CCC(=O)O)NC(=O)[C@H](CC(=O)O)NC(=O)[C@H](Cc2ccc(O)cc2)NC(=O)[C@H](Cc2ccc(O)cc2)NC(=O)CC[C@@H](C(N)=O)NC(=O)[C@H](C)NC1=O` (YYDEGLAE-NH2; lactam N-8), in assay [1], the inhibition entry was “inactive”.
Take `CC(C)C[C@@H]1NC(=O)CNC(=O)[C@H](CCC(=O)O)NC(=O)[C@H](CC(=O)O)NC(=O)[C@H](Cc2ccc(O)cc2)NC(=O)[C@H](Cc2ccc(O)cc2)NC(=O)CC[C@@H](C(N)=O)NC(=O)[C@H](CCC(=O)O)NC1=O` (YYDEGLEE-NH2; lactam N-8): the inhibition entry (in the assay with HUVEC [2]; in assay [1]; in assay [3]; in the assay with HUVEC [4]; in [6]; in the assay with HUVEC [9]) was “Active” each time. The inhibition entry in assay [5] was “Dose-dependent effect”. Further, the inhibition entry (in assay [7]; in the assay with HUVEC [8]) was “inactive” each time.
As to `CC(C)C[C@@H]1NC(=O)[C@H](CCCCN)NC(=O)[C@H](CCC(=O)O)NC(=O)[C@H](CC(=O)O)NC(=O)[C@H](Cc2ccc(O)cc2)NC(=O)[C@H](Cc2ccc(O)cc2)NC(=O)CC[C@@H](C(N)=O)NC(=O)[C@H](CCC(=O)O)NC1=O` (YYDEKLEE-NH2; lactam N-8), the inhibition result in assay [1] was “Active”.
Regarding `CC(C)C[C@@H]1NC(=O)CNC(=O)[C@H](CCC(=O)O)NC(=O)[C@H](CCCCN)NC(=O)[C@H](Cc2ccc(O)cc2)NC(=O)[C@H](Cc2ccc(O)cc2)NC(=O)CC[C@@H](C(N)=O)NC(=O)[C@H](CCC(=O)O)NC1=O` (YYKEGLEE-NH2; lactam N-8), the inhibition entry in [1] was “Active”. For the same molecule, the result in assay [10] was inactive.

These data come from ChEMBL document CHEMBL1155516, “Biochemical and structural analysis of the binding determinants of a vascular endothelial growth factor receptor peptidic antagonist” (J Med Chem, 2010).
